The values below come from patent US20240207444A1, “LIPID NANOPARTICLES CONTAINING POLYNUCLEOTIDES ENCODING PHENYLALANINE HYDROXYLASE AND USES THEREOF” (ModernaTX, Inc., priority 2021, published 2024).

The nature of this series: Residual parent lipid levels in the liver of mice. The settings on record: calculation assumes a 25 g mouse with a 1.5 g liver, >95% equals very slow metabolism of the lipid. The series is classed as in vivo, CD-1 mice. On the procedure: To assess potency of expression and metabolic stability of lipids of the disclosure, hepatocyte protein expression (hEPO) was measured following administration to mice of a nanoparticle of the disclosure.
Lipid nanoparticles including DSPC as a phospholipid, cholesterol as a structural lipid, Compound I as a PEG lipid, an ionizable amino lipid of Formula (II), and an mRNA encoding hEPO were intravenously administered to CD-1 mice. The concentration of hEPO in serum was tested at 6 hours after injection.
For the compound `CCCCCCCCC(CCCCCCCC)OC(=O)CCCCCCCN(CCO)CCCCCCCC(=O)OCCCC(CCCCC)CCCCC` [Compound 31], the “Approx. Percent Total Dose of Parent Lipid Remaining at 24 h” value was less than 0.1%^. In the case of `CCCCCC(CCCCC)CCCOC(=O)CCCCCCCN(CCO)CCCCCCCC(=O)OCCCC(CCCCC)CCCCC` [Compound 33], the “Approx. Percent Total Dose of Parent Lipid Remaining at 24 h” value is on record as less than 0.1%^. As for `CCCCCCCCC(CCCCCCCC)OC(=O)CCCCCCCN(CCO)CCCCCCCC(=O)OCCC1CCC(CC)CC1` (stereo not shown) [Compound 35], the figure is less than 0.1%^; as for `CCCCCCCCC(CCCCCCCC)OC(=O)CCCCCCCN(CCO)CCCCCCCC(=O)OCCC1CCC(CC)C1` (stereo not shown) [Compound 37], less than 0.1%^. As for `CCCCCCC(CCCCCC)OC(=O)CCCCCCCN(CCCCCCCC(=O)OCCC(CCCC)CCCC)CCCNc1c(NC)c(=O)c1=O` [Compound 60], the figure is 9 ± 0.8% ^. As for `CCCCCC(CCCCC)OC(=O)CCCCCCCN(CCCCCCCC(=O)OCCC(CCCC)CCCC)CCCNc1c(NC)c(=O)c1=O` [Compound 61], the figure is 6 ± 0.3% ^; as for `CCCCC(CCCC)CCOC(=O)CCCCCCCN(CCCCCCCC(=O)OC(CCCC)CCCC)CCCNc1c(NC)c(=O)c1=O` [Compound 62], 2 ± 0.9% ^; as for `CCCCCCCC(CCCCCCC)OC(=O)CCCCCCCN(CCCCCCCC(=O)OCCC(CCC)CCC)CCCNc1c(NC)c(=O)c1=O` [Compound 63], 9 ± 3% ^.

Take `CCCCCCC(CCCCCC)OC(=O)CCCCCCCN(CCCCCCCC(=O)OCCC(CCC)CCC)CCCNc1c(NC)c(=O)c1=O` [Compound 64]: the “Approx. Percent Total Dose of Parent Lipid Remaining at 24 h” value is recorded as 6 ± 0.8% ^.

Take `CCCCCC(CCCCC)OC(=O)CCCCCCCN(CCCCCCCC(=O)OCCC(CCC)CCC)CCCNc1c(NC)c(=O)c1=O` [Compound 65]: the “Approx. Percent Total Dose of Parent Lipid Remaining at 24 h” value is 0.9 ± 0.06% ^.
